We go through 93 compounds from PubChem BioAssay AID1259321 (Sanford-Burnham Center for Chemical Genomics, 2017).

Calls of active or inactive are those of the source.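 The calls were made as follows: active = half-maximal concentration for changing protein binding to DNA, from the fitted dose curve, below 10 micromolar; inactive = the rest.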

The experiment deals with Nuclear receptor subfamily 1 group D member 1 (Homo sapiens) (UniProt P20393). The experiment in a line: modulators of Rev-erb alpha DNA binding, dose response, biochemical, FITC-DNA, fluorescence polarization (AID 1259321). A general note: In fluorescence polarisation assays a small probe gives low polarisation when free and higher when bound to something large.
Nuclear receptor subfamily 1 group D member 1 (Homo sapiens), sequence (P20393 whole entry, looked up): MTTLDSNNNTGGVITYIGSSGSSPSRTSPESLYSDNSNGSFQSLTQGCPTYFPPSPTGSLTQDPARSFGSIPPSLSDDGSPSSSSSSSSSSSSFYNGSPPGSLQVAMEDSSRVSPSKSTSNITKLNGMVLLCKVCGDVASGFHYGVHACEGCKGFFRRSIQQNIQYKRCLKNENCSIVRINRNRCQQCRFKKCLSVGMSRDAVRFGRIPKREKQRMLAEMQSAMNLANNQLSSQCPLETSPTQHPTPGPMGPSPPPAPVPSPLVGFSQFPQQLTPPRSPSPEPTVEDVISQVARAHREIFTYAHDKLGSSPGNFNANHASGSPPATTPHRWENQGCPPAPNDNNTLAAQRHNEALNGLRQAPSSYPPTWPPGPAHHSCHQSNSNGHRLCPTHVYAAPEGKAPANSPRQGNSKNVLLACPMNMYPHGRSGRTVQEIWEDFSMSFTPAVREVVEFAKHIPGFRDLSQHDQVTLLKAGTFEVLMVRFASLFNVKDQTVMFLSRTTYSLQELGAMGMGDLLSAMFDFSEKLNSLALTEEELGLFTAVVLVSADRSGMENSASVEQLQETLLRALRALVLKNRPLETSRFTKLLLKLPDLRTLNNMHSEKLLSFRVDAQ

For the compound `COc1cccc(C(=O)n2ccc3ccc(-c4ccc5ccn(Cc6ccccc6)c5c4)cc32)c1`, the IC50 (commonly the concentration needed to halve the response being measured) was 1.31 µM.

Regarding `Cc1ccccc1CNc1ncnc2cc(Cl)ccc12`, the IC50 is 0.98 µM.

For the compound `COc1ccc(/C=C/C(=O)NC(=S)N2CCN(c3ccccc3OC)CC2)cc1`, the IC50 was 1.65 µM.

In the case of `COc1cc(C(=O)Nc2cccc(-c3nc4cc(C)ccc4o3)c2)cc(OC)c1OC`, the IC50 was 4.32 µM.

Consider `CN1C(=O)N(C)c2ccc(Br)c3cccc1c23`, for which the IC50 was > 40 µM (inactive).

As for `Cc1nc(SCC(=O)NCCc2ccccc2)c2oc3ccccc3c2n1`, the IC50 is 4.25 µM.

`CCCN1C(=O)S/C(=C/c2ccc(N3CCOCC3)o2)C1=O`: the IC50 is 5.84 µM.

For the compound `CN(C)c1ccc(N=Nc2ccccc2C(=O)OCC(=O)NCC2CCCCC2)cc1`, the IC50 was 7.85 µM.

As for `CCOc1ccccc1-c1nc(-c2ccc(NC(=O)Cc3ccc(OC)cc3)cc2)no1`, the IC50 is 6.52 µM.

For the compound `CCSC1=N/C(=C\C=C2/Oc3ccccc3N2CC)C(=O)S1`, the IC50 was 9.41 µM.

As to `O=C(CSc1ncnc2c1oc1ccccc12)Nc1cccc(F)c1`, the IC50 was 2.51 µM.

On to `CCCN=C(C)c1c(-c2ccccc2)[nH]n(-c2nc3ccccc3s2)c1=O`, for which the IC50 is 0.917 µM.

Turning to `Cn1c(SCC(=O)c2ccc3c(c2)Cc2ccccc2-3)nnc1-c1ccccc1`, the IC50 is 2.24 µM.

For `COc1cc(N2N=C(c3ccccc3)CC2c2ccccc2)c(C=O)cc1C=O` (stereo not drawn), the IC50 was 4.6 µM.

`COCCn1c(=NC(=O)c2nc3ccccc3s2)sc2cc(S(C)(=O)=O)ccc21`: the IC50 is 4.6 µM.

As to `COc1ccc(CN(Cc2cc3cc(OC)c(OC)cc3[nH]c2=O)C(=O)NC2CCCCC2)cc1`, the IC50 is 3.44 µM.

Consider `CCCCNc1ccc2c3c(cccc13)C(=O)N(CCCC)C2=O`, for which the IC50 is 2.78 µM.

Regarding `COc1ccc(C(=O)NNC(=O)C(Cc2ccc(O)cc2)NC(=O)c2ccccc2NC(=O)c2ccc(OC)cc2)cc1` (stereo not drawn), the IC50 result was “inactive”.

For `O=C(NCc1ccccc1)C(c1cc2ccccc2o1)n1c(=O)c(-c2ccccc2)nc2ccccc21` (stereo not drawn), the IC50 is > 40 µM (inactive).

For `Cc1ccsc1C(=O)Nc1ccc(O)c(-c2nc3ccccc3s2)c1`, the IC50 is 6.87 µM.

`CCOc1ccc(NC(=O)CCSc2ccc3ccccc3n2)cc1`: the IC50 was 5.15 µM.

Consider `CCc1cc2cc3c(cc2nc1SCC(=O)Nc1c[nH]c(=O)[nH]c1=O)OCO3`, for which the IC50 is 2.22 µM.

Turning to `COC(=O)c1ccc(NC(=O)c2ccc3c(c2)C(=O)N(C)C3=O)cc1`, the IC50 was 4.43 µM.

Regarding `Cn1c2ccccc2n2c(=O)c(Cl)c(-c3ccccc3)c(C#N)c12`, the IC50 is 3.4 µM.

Regarding `CCc1nc(SCC(=O)NC2CCCC2)c2oc3ccccc3c2n1`, the IC50 is > 40 µM (inactive).

Turning to `O=C(CSc1ncnc2c1oc1ccccc12)Nc1ccccc1F`, the IC50 is 7.81 µM.

Take `Cc1cccc2cc(C#N)c(SCC(=O)Nc3ccccc3N3CCOCC3)nc12`: the IC50 entry was “inactive”.

On to `CC(=O)c1ccc(NC(=O)COC(=O)c2ccccc2Sc2ccccc2C#N)cc1`, for which the IC50 is > 40 µM (inactive).

`COc1ccccc1Oc1ccc2c(c1)C(=O)N(c1ccccc1)C2=O`: the IC50 was 2.24 µM.

Consider `CC(=O)c1sc(NC(=O)COc2ccc(Br)cc2)nc1C`, for which the IC50 was 4.41 µM.

`Cc1[nH]nc2nc(SCC(=O)NC3CCCCC3)n(-c3ccc(Br)cc3)c(=N)c12`: the IC50 is 5.74 µM.

`CCOC(=O)COc1c(Cl)cc(C2NC(=S)NC(c3ccccc3)=C2C(C)=O)cc1OCC` (stereo not drawn): the IC50 is 1.16 µM.

In the case of `O=C(OCC(=O)c1c[nH]c2ccccc12)c1cc(Br)ccc1O`, the IC50 was 5.27 µM.

As to `C=CCOc1ccc(C2C(C(=O)c3cccs3)=C(O)C(=O)N2c2nnc(C)s2)cc1` (stereo not drawn), the IC50 was 3.99 µM.

On to `O=C(CCn1c(=O)c2cccn2c2cccnc21)NCc1cccc(Cl)c1`, for which the IC50 was > 40 µM (inactive).

Turning to `COc1ccc(-c2cc(C(=O)Nc3cccnc3Cl)no2)cc1OC`, the IC50 was 1.92 µM.

`CCN1C(=O)/C(=C\N2CCN(c3ccc(F)cc3)CC2)SC1=S`: the IC50 is > 40 µM (inactive).

With `CCC(C)NC(=O)Cc1c(OC)ccc2cc(Br)ccc12` (stereo not drawn), the IC50 is 8.21 µM.

As for `O=[N+]([O-])c1ccc(N(c2ccccc2)c2ccccc2)cc1`, the IC50 was 4.62 µM.

With `CCc1ccc(NC(=O)CSc2nnc(-c3n[nH]c4ccccc34)n2-c2ccccc2)cc1`, the IC50 was 2.64 µM.

Consider `O=C(Nc1nc2ccsc2c(=O)s1)c1ccc(Cl)cc1`, for which the IC50 is 7.69 µM.

Consider `COc1cc(/C=C(\C#N)c2nc3ccccc3[nH]2)cc(OC)c1O`, for which the IC50 result is “inactive”.

As to `CC(=O)NC(=S)Nc1ccc2oc(-c3cc(F)c(F)cc3Cl)nc2c1`, the IC50 is 3.33 µM.

For `CCc1cccc(NC(=O)c2ccc(Cn3c(=O)[nH]c4ccsc4c3=O)cc2)c1`, the IC50 result is “inactive”.

As to `COc1ccc(-n2nc(C(=O)NCC(=O)Nc3ccccn3)c3ccccc3c2=O)cc1Cl`, the IC50 is 1.28 µM.

With `O=c1cc(-c2ccccc2Cl)oc2c(NS(=O)(=O)c3cccs3)ccc(O)c12`, the IC50 result is “inactive”.

For the compound `COc1ccc(C(=O)Cn2cnc3ccc(Cl)cc3c2=O)cc1F`, the IC50 was 5 µM.

On to `CCN(CC)S(=O)(=O)c1ccc(C(=O)OCCN2C(=O)c3cccc4c(N5CCOCC5)ccc(c34)C2=O)cc1`, for which the IC50 is > 40 µM (inactive).

As to `O=C(CCCOc1ccc(Cl)cc1Cl)NNC(=O)c1ccc(NC(=O)c2ccccc2)cc1`, the IC50 is 5.81 µM.

For the compound `COc1ccccc1NC(=O)c1cnc(SCC(=O)NCCc2ccccc2)n(C)c1=O`, the IC50 is 4.36 µM.

As to `O=C1c2c(Br)c(Br)c(Br)c(Br)c2C(=O)N1c1ccccn1`, the IC50 is 8.24 µM.

Regarding `O=C(CSc1ncnc2c1oc1ccccc12)Nc1ccc2c(c1)OCCO2`, the IC50 was > 40 µM (inactive).

`CC(=O)c1ccccc1NC(=O)c1cc(S(=O)(=O)N2CCOCC2)ccc1N1CCCC1`: the IC50 was 4.33 µM.

On to `O=c1oc2c3c4c(cc2c(C(F)(F)F)c1CCN1CCOCC1)CCCN4CCC3`, for which the IC50 result was “inactive”.

As to `O=C(COc1nc2ccccc2nc1N1CCOCC1)N1CCc2ccccc21`, the IC50 is > 40 µM (inactive).

Take `Cc1cc(=O)oc2cc(OCC3CC(c4ccc(Cl)cc4)=NO3)ccc12` (stereo not drawn): the IC50 was 8.95 µM.

Take `Fc1cccc2sc(Nc3nc4ccccc4s3)nc12`: the IC50 was > 40 µM (inactive).

With `O=C(OCCN1C(=O)c2cccc3c(N4CCOCC4)ccc(c23)C1=O)c1ccccc1Cl`, the IC50 was 8.24 µM.

`COc1ccc(-c2nc(-c3cccs3)c(-c3cccs3)[nH]2)cc1OC`: the IC50 is 5.77 µM.

Consider `CN(c1ccc(O)cc1)c1ccc([N+](=O)[O-])c2nonc12`, for which the IC50 is 6 µM.

Consider `CSc1nc(N)c(C#N)c(-c2ccc(Cl)cc2)c1C#N`, for which the IC50 is 4.85 µM.

With `CC1(C)Cc2c(c(N3CCCC3)nc3sc(C(=O)Nc4ccccc4)c(N)c23)CO1`, the IC50 is 3.37 µM.

As for `Brc1nc(-c2ccccc2)nc(-c2ccccc2)c1Br`, the IC50 was > 40 µM (inactive).

On to `Cc1cc(C)c2nc(SCC(=O)N(C)C3CCS(=O)(=O)C3)cc(C)c2c1` (stereo not drawn), for which the IC50 is 6.34 µM.

For `CCN1C(=O)c2cccc3c(N)ccc(c23)C1=O`, the IC50 is > 40 µM (inactive).

For `Nc1ccc2nc3c(=O)n(CCc4ccccc4)c(=O)[nH]c3nc2c1`, the IC50 is 2.89 µM.

As for `Cc1cc(C)cc(NC(=S)/C(=C(\[O-])c2ccc(Cl)cc2Cl)[n+]2ccc(C(C)(C)C)cc2)c1`, the IC50 is > 40 µM (inactive).

Consider `COc1ccc(-c2cc(-c3ccccc3)c(C#N)c(SCC(=O)Nc3ncc(C)s3)n2)cc1`, for which the IC50 was 3.58 µM.

As to `CCSc1nnc(NC(=O)c2cc3c(s2)CCCC3)s1`, the IC50 is 1.58 µM.

As for `N#Cc1c(N)nc(SCC(=O)C23CC4CC(CC(C4)C2)C3)c(C#N)c1-c1ccc(Cl)cc1`, the IC50 was > 40 µM (inactive).

For `Cc1ccc(NC(=O)CSc2nc3ncc(Br)cc3[nH]2)cc1C`, the IC50 is > 40 µM (inactive).

For `CN1C(=O)C(=Cc2ccc(N3CCCCCC3)o2)C(=O)N(C)C1=S`, the IC50 result was “inactive”.

With `COC(=O)Cn1c(C)c(/C=C/c2cc[n+](C)cc2)c2ccccc21`, the IC50 is 2.25 µM.

`CCCOc1ccc(/C(CC)=N/NC(=O)C2(C)CC2(Br)Br)cc1` (stereo not drawn): the IC50 result was “inactive”.

In the case of `COc1ccc(CNC(=O)CCCn2c(=S)[nH]c3cc4c(cc3c2=O)OCO4)cc1`, the IC50 is 6.11 µM.

Take `Cc1cc(C)c2c(N)c(C(=O)N/N=C/c3cccs3)sc2n1`: the half-maximal inhibitory concentration (IC50) was 5.4 µM.

Regarding `COc1ccc2cc(C(=O)Nc3ccc(S(N)(=O)=O)cc3)sc(=O)c2c1OC`, the IC50 is 3.03 µM.

For `COc1ccccc1N=Nc1c(O)[nH]c(=S)[nH]c1=O`, the IC50 is > 40 µM (inactive).

For the compound `CCn1cc(/C=C/c2cc[n+](C)cc2)c2ccccc21`, the IC50 is 3.25 µM.

On to `CCN(CC)c1ccc(-c2c(C#N)c(N)nc(OC)c2C#N)cc1`, for which the IC50 is > 40 µM (inactive).

Turning to `COc1ccc(-c2ccc3sc4ccccc4c(=O)c3c2)cn1`, the IC50 is 3.24 µM.

As for `CCn1c(=NC(=O)c2ccc(N3C(=O)CCC3=O)cc2)sc2c(OC)ccc(OC)c21`, the IC50 was 2.63 µM.

For `COc1ccc2[nH]c(C(=O)Nc3ccc(F)cc3Br)cc2c1`, the IC50 is > 40 µM (inactive).

Regarding `COc1ccc(-c2nc3c(c(=O)c4ccccc4n3C)c(=O)n2Cc2ccccc2)cc1`, the IC50 was 9.23 µM.

`COc1ccc(-c2ccc3c(c2)c(Sc2ccccc2)c(-c2cc(OC)cc(OC)c2)n3C)cc1`: the IC50 is 6.89 µM.

On to `O=C(CCc1c[nH]c2ccccc12)NCCc1ccc2c(c1)OCCO2`, for which the half-maximal inhibitory concentration (IC50) is 1.08 µM.

Regarding `COc1cccc(C(=O)Nc2ccc(-c3nc4ccccc4o3)c(O)c2)c1`, the IC50 is > 40 µM (inactive).

Turning to `Cc1sc2nc(SC(C)C)nc(N)c2c1C`, the IC50 was 3.72 µM.

Consider `CCCCN1C(=O)/C(=C/C=C2/CC(C)(C)CN2C)SC1=S`, for which the IC50 is > 40 µM (inactive).

Turning to `COc1ccc(-c2c(C#N)c(SCC(N)=O)nc3c2CCCC3)cc1`, the IC50 was 3.93 µM.

Regarding `Cc1ccc2c(n1)sc1c(-c3ccccc3)c(C#N)c(N)nc12`, the IC50 result is “inactive”.

On to `CCNc1ccc2noc3c2c1C(=O)c1ccccc1-3`, for which the IC50 was > 40 µM (inactive).

As to `CCCCCc1nc2c(c(=O)c3ccccc3n2C)c(=O)n1Cc1ccc(OC)cc1`, the IC50 was 2.96 µM.
